# Laboratory results as given in patent EP0048954A2, “Beta-lactam compounds, process for the preparation thereof and intermediate products for the preparation thereof” (SAGAMI CHEMICAL RESEARCH CENTER, priority 1980, dated 1982).
# Values joined by “and” are separate entries in the source; they are usually repeats but may differ in a detail not shown here. Identical values can stand only once. Counter-ions that a name gives are not always drawn.
# Tests used:
# Assay in all cases: Antibacterial activity, minimum inhibition concentration (method of The Chemotherapy Association, Japan)
# Type in all cases: cell-based
# Proteus vulgaris OX-19 = conditions: Proteus vulgaris, OX19, strain H: Proteus vulgaris OX-19; read-out: minimum inhibition concentration
# Description: (§1) The abbreviations A to P will be used in the following Tables 2 to 8.
# (§2) Test results are shown in terms of the minimum inhibition concentration (µg/mℓ.) in the following Tables 2 to 8.
# Proteus rettgeri NIH-96 = conditions: for MIC: Providencia rettgeri, NIH96, strain I: Proteus rettgeri NIH-96, read-out: minimum inhibition concentration; for minimum inhibition concentration: strain I: Proteus rettgeri NIH-96
# Description: as §1, §2
# [1] = system: Bacillus subtilis ATCC 6633; conditions: for MIC: Bacillus subtilis, ATCC6633, strain B: Bacillus subtilis ATCC 6633, read-out: minimum inhibition concentration
# Description: (§3) Antibacterial activities of the compounds according to this invention, which had been prepared in the preceding Examples, were measured according to the method prescribed by The Committee of Amendment of "The method for measurement of the minimum inhibition concentration", The Chemotherapy Association, Japan (See Chemotherapy, Vol. 22, No. 6, pp. 1126 - 1128 (1974) and Vol. 29, No. 1, pp. 76 - 79 (1981)).
# as §1, §2
# [2] = system: Citrobactor freundii NIH-10018 -68; conditions: strain O: Citrobactor freundii NIH-10018 -68; read-out: minimum inhibition concentration
# Description: as §3, §1, §2
# Escherichia coli NIHJ = conditions: strain K: Escherichia coli NIHJ; for MIC: Escherichia coli, read-out: minimum inhibition concentration
# Description: as §3, §1, §2
# Proteus morgani Kono = conditions: strain J: Proteus morgani Kono; for MIC: read-out: minimum inhibition concentration
# Description: as §3, §1, §2
# [3] = system: Serratia marcescens IFO-3736; conditions: for MIC: Serratia marcescens, IFO3736, strain F: Serratia marcescens IFO-3736, read-out: minimum inhibition concentration; for minimum inhibition concentration: strain F: Serratia marcescens IFO-3736
# Description: as §3, §1, §2
# [4] = system: Enterobactor cloacae NCTC-9394; conditions: strain N: Enterobactor cloacae NCTC-9394; for MIC: read-out: minimum inhibition concentration
# Description: as §3, §1, §2
# Escherichia coli NIHJC-2 = conditions: for MIC: Escherichia coli, NIHJC2, strain L: Escherichia coli NIHJC-2, read-out: minimum inhibition concentration
# Description: as §3, §1, §2
# Serratia marcescens 1023 = conditions: for MIC: Serratia marcescens, 1023, strain E: Serratia marcescens 1023, read-out: minimum inhibition concentration
# Description: as §3, §1, §2
# [5] = system: Pseudomonas aeruginosa NCTC-10490; conditions: for MIC: Pseudomonas aeruginosa, NCTC10490, strain M: Pseudomonas aeruginosa NCTC-10490, read-out: minimum inhibition concentration; for minimum inhibition concentration: strain M: Pseudomonas aeruginosa NCTC-10490
# Description: as §3, §1, §2
# [6] = system: Proteus mirabillis B-30-2 IFO-3849; conditions: strain G: Proteus mirabillis B-30-2 IFO-3849; for MIC: read-out: minimum inhibition concentration
# Description: as §3, §1, §2
# Klebsiella pneumoniae = conditions: strain C: Klebsiella pneumoniae; for MIC: Klebsiella pneumoniae, read-out: minimum inhibition concentration
# Description: as §3, §1, §2
# [7] = system: Salmonella typhimurium 3173; conditions: Salmonella enterica, TYPHIMURIUM, strain D: Salmonella typhimurium 3173; read-out: minimum inhibition concentration
# Description: as §3, §1, §2
# [8] = system: Staphylococcus aureus 6538-P; conditions: strain A: Staphylococcus aureus 6538-P; read-out: minimum inhibition concentration
# Description: as §3, §1, §2
Structure (SMILES),MIC (Proteus vulgaris OX-19),MIC (Proteus rettgeri NIH-96),MIC [1],MIC [2],MIC (Escherichia coli NIHJ),MIC (Proteus morgani Kono),MIC [3],MIC [4],MIC (Escherichia coli NIHJC-2),MIC (Serratia marcescens 1023),MIC [5],MIC [6],MIC (Klebsiella pneumoniae),MIC [7],MIC [8],further results
"CC(=O)OCC1=C(C(=O)O)N2C(=O)C(NC(=O)C(=C(Cl)Cl)c3ccc(Br)s3)[C@H]2SC1 (stereo partly shown) [Compound 32, 7-[2-dichloromethylene-2-(5-bromo-2-thienyl)acetamido]-3-acetoxymethyl-3-cephem-4-carboxylic acid]",100 µg/mL,0.78 µg/mL,6.25 µg/mL,> 100 µg/mL,25 µg/mL,> 100 µg/mL,> 100 µg/mL,> 100 µg/mL,> 100 µg/mL,12.5 µg/mL,50 µg/mL,> 100 µg/mL,> 100 µg/mL,> 100 µg/mL,0.1 µg/mL,–
"CC(=O)OCC1=C(C(=O)O)N2C(=O)C(NC(=O)C(=C(Cl)Cl)c3cccn3C)[C@H]2SC1 (stereo partly shown) [Compound 36, 7-[2-dichloromethylene-2-(1-methyl-2-pyrrolyl)acetamido]-3-acetoxymethyl-3-cephem-4-carboxylic acid]",50 µg/mL,1.56 µg/mL,12.5 µg/mL,> 100 µg/mL,50 µg/mL,> 100 µg/mL,> 100 µg/mL,> 100 µg/mL,> 100 µg/mL,100 µg/mL,> 100 µg/mL,> 100 µg/mL,> 100 µg/mL,> 100 µg/mL,0.78 µg/mL,–
"Cn1nnnc1SCC1=C(C(=O)O)N2C(=O)C(NC(=O)C(=CCl)c3csc(N)n3)C2SC1 (stereo not shown) [11-(3), 7-[2-chloromethylene-2-(2-aminothiazol-4-yl)-acetamido]-3-(1-methyl-lH-tetrazol-5-yl)thiomethyl-3-cephem-4-carboxylic acid sodium salt]",0.025 µg/mL,< 0.00625 µg/mL,3.12 µg/mL,0.78 µg/mL,< 0.00625 µg/mL,0.2 µg/mL,0.78 µg/mL,0.2 µg/mL,0.78 µg/mL,6.25 µg/mL,1.56 µg/mL,0.39 µg/mL,0.78 µg/mL,0.78 µg/mL,0.39 µg/mL,–
"CC(=O)OCC1=C(C(=O)O)N2C(=O)C(NC(=O)C(=C(Cl)Cl)c3csc(NC(=O)OC(C)(C)C)n3)C2SC1 (stereo not shown) [5-(1), 7-[2-dichloromethylene-2-(2-tert-butoxycarbonyl-aminothiazol-4-yl)acetamido]-3-acetoxymethyl-3-cephem-4-carboxylic acid]",0.39 µg/mL,< 0.025 µg/mL,25 µg/mL,25 µg/mL,0.1 µg/mL,12.5 µg/mL,12.5 µg/mL,12.5 µg/mL,25 µg/mL,25 µg/mL,12.5 µg/mL,12.5 µg/mL,12.5 µg/mL,12.5 µg/mL,1.56 µg/mL,–
"CC1(C)S[C@@H]2C(NC(=O)C(=C(Cl)Cl)c3cccs3)C(=O)N2[C@H]1C(=O)O (stereo partly shown) [Compound 37, 6-[2-dichloromethylene-2-(2-thienyl)acetamido]-penicillanic acid]",50 µg/mL,0.25 µg/mL,1.56 µg/mL,> 100 µg/mL,0.78 µg/mL,> 100 µg/mL,> 100 µg/mL,100 µg/mL,> 100 µg/mL,0.05 µg/mL,6.25 µg/mL,> 100 µg/mL,> 100 µg/mL,> 100 µg/mL,0.1 µg/mL,–
"CC(=O)OCC1=C(C(=O)O)N2C(=O)C(NC(=O)C(=C(Cl)Cl)c3cccc(O)c3)[C@H]2SC1 (stereo partly shown) [Compound 3, 7-[2-dichloromethylene-2-(3-hydroxyphenyl)acetamido]-3-acetoxymethyl-3-cephem-4-carboxylic acid]",0.76 µg/mL,0.1 µg/mL,3.12 µg/mL,25 µg/mL,0.2 µg/mL,100 µg/mL,50 µg/mL,12.5 µg/mL,50 µg/mL,0.25 µg/mL,6.25 µg/mL,50 µg/mL,50 µg/mL,12.5 µg/mL,0.39 µg/mL,–
"CC(=O)OCC1=C(C(=O)O)N2C(=O)C(NC(=O)C(=C(Cl)Cl)c3ccco3)[C@H]2SC1 (stereo partly shown) [Compound 33, 7-[2-dichloromethylene-2-(2-furyl)acetamido]-3-acetoxymethyl-3-cephem-4-carboxylic acid]",6.25 µg/mL,0.1 µg/mL,6.25 µg/mL,50 µg/mL,1.56 µg/mL,> 100 µg/mL,100 µg/mL,25 µg/mL,100 µg/mL,25 µg/mL,12.5 µg/mL,100 µg/mL,100 µg/mL,50 µg/mL,0.39 µg/mL,–
"CO/N=C(\C(=O)N[C@@H]1C(=O)N2C(C(=O)O)=C(COC(C)=O)CS[C@H]12)c1csc(N)n1 [Cefotaxime, reference compound]",< 0.025 µg/mL,–,–,0.2 µg/mL,–,–,0.2 µg/mL,0.39 µg/mL,0.2 µg/mL,50 µg/mL,0.78 µg/mL,–,0.1 µg/mL,0.1 µg/mL,0.39 µg/mL,minimum inhibition concentration (Proteus rettgeri NIH-96): <0.00625 µg/mL; minimum inhibition concentration (Proteus rettgeri NIH-96; listed as Cefota-xime): <0.025 µg/mL; minimum inhibition concentration ([1]; strain B: Bacillus subtilis ATCC 6633): 6.25 µg/mL; minimum inhibition concentration (Escherichia coli NIHJ): <0.00625 µg/mL; minimum inhibition concentration (Escherichia coli NIHJ; listed as Cefota-xime): <0.025 µg/mL; minimum inhibition concentration (Proteus morgani Kono): 0.39 µg/mL; minimum inhibition concentration (Proteus morgani Kono; listed as Cefota-xime): 1.56 µg/mL and 0.78 µg/mL; minimum inhibition concentration [3]: 0.2 µg/mL; minimum inhibition concentration ([3]; listed as Cefota-xime): 0.39 µg/mL; minimum inhibition concentration [4]: 0.2 µg/mL; minimum inhibition concentration ([4]; listed as Cefota-xime): 0.2 µg/mL; minimum inhibition concentration (Escherichia coli NIHJC-2; strain L: Escherichia coli NIHJC-2): 0.1 µg/mL; minimum inhibition concentration (Serratia marcescens 1023; strain E: Serratia marcescens 1023): 100 µg/mL; minimum inhibition concentration [5]: 0.39 µg/mL; minimum inhibition concentration ([5]; listed as Cefota-xime): 0.39 µg/mL; minimum inhibition concentration [6]: 0.025 µg/mL; minimum inhibition concentration ([6]; listed as Cefota-xime): 0.1 µg/mL; minimum inhibition concentration (Klebsiella pneumoniae): 0.05 µg/mL
"CC1=C(C(=O)O)N2C(=O)C(NC(=O)C(=CCl)c3csc(N)n3)C2SC1 (single isomer, unassigned) [Compound 23, 7-[2-chlromethylene-2-(2-aminothiazol-4-yl)acetamido]-desacetoxycephelosporanic acid sodium salt]",12.5 µg/mL,0.39 µg/mL,50 µg/mL,100 µg/mL,6.25 µg/mL,> 100 µg/mL,> 100 µg/mL,12.5 µg/mL,100 µg/mL,100 µg/mL,> 100 µg/mL,25 µg/mL,50 µg/mL,50 µg/mL,3.12 µg/mL,–
"CC(=O)OCC1=C(C(=O)O)N2C(=O)C(NC(=O)C(=C(Cl)Cl)c3ccc(Cl)s3)[C@H]2SC1 (stereo partly shown) [Compound 31, 7-[2-dichloromethylene-2-(5-chloro-2-thienyl)acetamido]-3-acetoxymethyl-3-cephem-4-carboxylic acid]",100 µg/mL,1.56 µg/mL,6.25 µg/mL,> 100 µg/mL,25 µg/mL,> 100 µg/mL,> 100 µg/mL,> 100 µg/mL,> 100 µg/mL,100 µg/mL,100 µg/mL,> 100 µg/mL,> 100 µg/mL,> 100 µg/mL,0.2 µg/mL,–
